# Reference: ChEMBL document CHEMBL1122789, “Synthesis and biological activity of structural analogues of the anticancer benzophenanthridine alkaloid nitidine chloride” (1984)
# Columns and labels:
# [1] = tested on: P388; assay: Evaluated for anticancer activity in survival tumor system P388 lymphocytic leukemia at a dose of 25 mg/kg, value was reported as weight difference; assay type: functional, Mus musculus
# [2] = tested on: B16; assay: Evaluated for anticancer activity in survival tumor system B16 melanocarcinoma at a dose of 25 mg/kg; Number of Tested survived/number of control survived (10/10); assay type: functional, Mus musculus
# [3] = tested on: MX1; assay: Evaluated for anticancer activity in tumor inhibition system MX-1 breast xenograph at a dose of 150mg/kg, value was reported as weight difference; assay type: functional, Homo sapiens
# [4] = tested on: MX1; assay: Evaluated for anticancer activity in tumor inhibition system MX-1 breast xenograph at a dose of 600 mg/kg; Number of Tested survived/number of control survived (0/6); assay type: functional, Homo sapiens
# [5] = tested on: L1210; assay: Evaluated for anticancer activity in survival tumor system L1210 lymphoid leukemia at dose 12.5 mg/kg; assay type: functional, Mus musculus
# [6] = tested on: P388; assay: Evaluated for anticancer activity in survival tumor system P388 lymphocytic leukemia at a dose of 12.5 mg/kg;Number of Tested survived/number of control survived (5/6); assay type: functional, Mus musculus
# [7] = tested on: B16; assay: Evaluated for anticancer activity in survival tumor system B16 melanocarcinoma at dose 6.25 mg/kg; assay type: functional, Mus musculus
# [8] = tested on: P388; assay: Evaluated for anticancer activity in survival tumor system P388 lymphocytic leukemia at a dose of 100 mg/kg; Number of Tested survived/number of control survived (5/6); assay type: functional, Mus musculus
# [9] = tested on: L1210; assay: Evaluated for anticancer activity in survival tumor system L1210 lymphoid leukemia at dose 6.25 mg/kg; assay type: functional, Mus musculus
# [10] = Evaluated for anticancer activity in tumor inhibition system CD8F1 mammary tumors at a dose of mg/kg;Number of Tested survived/number of control survived (10/10); assay type: functional, Mus musculus
# [11] = tested on: B16; assay: Evaluated for anticancer activity in survival tumor system B16 melanocarcinoma at a dose of 100 mg/kg; Number of Tested survived/number of control survived (7/10); assay type: functional, Mus musculus
# [12] = tested on: Lewis lung carcinoma cell line; assay: Evaluated for anticancer activity in survival tumor system tumor system Lewis lung (LL) carcinoma at a dose of 200 mg/kg; Number of Tested survived/number of control survived (2/10); assay type: functional, Mus musculus
# [13] = Evaluated for anticancer activity in tumor inhibition system CD8F1 mammary tumor at dose 125 mg/kg; assay type: functional, Mus musculus
# [14] = tested on: Lewis lung carcinoma cell line; assay: Evaluated for anticancer activity in survival tumor system Lewis lung (LL) carcinoma at a dose of 25 mg/kg; number of Tested survived/number of control survived; assay type: functional, Mus musculus
# [15] = Evaluated for anticancer activity in tumor inhibition system colon 38 tumor at dose 50 mg/kg; assay type: functional, Mus musculus
# [16] = tested on: P388; assay: Evaluated for anticancer activity in survival tumor system P388 lymphocytic leukemia at a dose of 50 mg/kg;Number of Tested survived/number of control survived (5/5); conditions: Mus musculus
# [17] = tested on: P388; assay: Evaluated for anticancer activity in survival tumor system P388 lymphocytic leukemia at dose 25 mg/kg; assay type: functional, Mus musculus
# [18] = tested on: B16; assay: Evaluated for anticancer activity in survival tumor system B16 melanocarcinoma at dose 25 mg/kg; assay type: functional, Mus musculus
# [19] = tested on: Lewis lung carcinoma cell line; assay: Evaluated for anticancer activity in survival tumor system tumor system Lewis lung (LL) carcinoma at a dose of 100 mg/kg; Number of Tested survived/number of control survived (10/10); assay type: functional, Mus musculus
# [20] = Evaluated for anticancer activity in tumor inhibition system colon 38 at a dose of 200 mg/kg, value was reported as weight difference; assay type: functional, Mus musculus
# [21] = tested on: P388; assay: Evaluated for anticancer activity in survival tumor system P388 lymphocytic leukemia at a dose of 50 mg/kg, value was reported as weight difference; assay type: functional, Mus musculus
# [22] = tested on: L1210; assay: Evaluated for anticancer activity in survival tumor system L1210 lymphoid leukemia at a dose of 25 mg/kg; Number of Tested survived/number of control survived (6/6); assay type: functional, Mus musculus
# [23] = tested on: L1210; assay: Evaluated for anticancer activity in survival tumor system L1210 lymphoid leukemia at a dose of 100 mg/kg; Number of Tested survived/number of control survived (6/6); assay type: functional, Mus musculus
# [24] = tested on: MX1; assay: Evaluated for anticancer activity in tumor inhibition system MX-1 breast xenograph at a dose of 150 mg/kg; Number of Tested survived/number of control survived (5/6); conditions: Homo sapiens
# [25] = Evaluated for anticancer activity in tumor inhibition system CD8F mammary tumor at a dose of 125 mg/kg, value was reported as weight difference; assay type: functional, Mus musculus
# [26] = tested on: B16; assay: Evaluated for anticancer activity in survival tumor system B16 melanocarcinoma at a dose of 25 mg/kg, value was reported as weight difference; assay type: functional, Mus musculus
# [27] = tested on: L1210; assay: Evaluated for anticancer activity in survival tumor system L1210 lymphoid leukemia at a dose of 25 mg/kg, value was reported as weight difference; assay type: functional, Mus musculus
# [28] = Evaluated for anticancer activity in tumor inhibition system colon 38 at a dose of 400 mg/kg, value was reported as weight difference; assay type: functional, Mus musculus
# [29] = tested on: P388; assay: Evaluated for anticancer activity in survival tumor system P388 lymphocytic leukemia at dose 50 mg/kg; assay type: functional, Mus musculus
# [30] = tested on: Lewis lung carcinoma cell line; assay: Evaluated for anticancer activity in survival tumor system Lewis lung (LL) carcinoma at a dose of 12.5 mg/kg, value was reported as weight difference; assay type: functional, Mus musculus
# [31] = tested on: L1210; assay: Evaluated for anticancer activity in survival tumor system L1210 lymphoid leukemia at a dose of 100 mg/kg, value was reported as weight difference; assay type: functional, Mus musculus
# [32] = tested on: B16; assay: Evaluated for anticancer activity in survival tumor system B16 melanocarcinoma at a dose of 100 mg/kg, value was reported as weight difference; assay type: functional, Mus musculus
# [33] = tested on: MX1; assay: Evaluated for anticancer activity in tumor inhibition system MX-1 breast xenograph at a dose of 75 mg/kg, value was reported as weight difference; assay type: functional, Homo sapiens
# [34] = tested on: L1210; assay: Evaluated for anticancer activity in survival tumor system L1210 lymphoid leukemia at a dose of 50 mg/kg; Number of Tested survived/number of control survived (6/6); assay type: functional, Mus musculus
# [35] = tested on: Lewis lung carcinoma cell line; assay: Evaluated for anticancer activity in survival tumor system Lewis lung (LL) carcinoma at a dose of 200 mg/kg, value was reported as weight difference; assay type: functional, Mus musculus
# [36] = tested on: B16; assay: Evaluated for anticancer activity in survival tumor system B16 melanocarcinoma at a dose of 12.5 mg/kg, value was reported as weight difference; assay type: functional, Mus musculus
# [37] = tested on: P388; assay: Evaluated for anticancer activity in survival tumor system P388 lymphocytic leukemia at a dose of 200 mg/kg; Number of Tested survived/number of control survived (0/6); assay type: functional, Mus musculus
# [38] = Evaluated for anticancer activity in tumor inhibition system colon 38 tumors at a dose of 50 mg/kg; Number of Tested survived/number of control survived (10/10); assay type: functional, Mus musculus
# [39] = Evaluated for anticancer activity in tumor inhibition system colon 38 tumors at a dose of 100 mg/kg; Number of Tested survived/number of control survived (10/10); assay type: functional, Mus musculus
# [40] = Evaluated for anticancer activity in tumor inhibition system colon 38 tumor at dose 100 mg/kg; assay type: functional, Mus musculus
# [41] = Evaluated for anticancer activity in tumor inhibition system colon 38 tumors at a dose of 400 mg/kg; Number of Tested survived/number of control survived (10/10); assay type: functional, Mus musculus
# [42] = tested on: B16; assay: Evaluated for anticancer activity in survival tumor system B16 melanocarcinoma at a dose of 6.25 mg/kg; Number of Tested survived/number of control survived (10/10); assay type: functional, Mus musculus
compound,measurement,setting,value
COc1cc2c[n+](C)c3c(c2cc1OC)Cc1cc2c(cc1-3)OCO2.[Cl-],Weight change,[1],-3.6
same,Survival,[2],10
same,Weight change,[3],-6
same,Survival,[4],0
same,T/C,[5],156%
same,Survival,[6],5
same,T/C,[7],148%
same,Survival,[8],5
same,T/C,[9],154%
same,Survival,[10],10
same,Survival,[11],7
same,Survival,[12],2
same,T/C,[13],105%
same,Survival,[14],10
same,T/C,[15],94%
same,Survival,[16],5
same,T/C,[17],151%
same,T/C,[18],139%
same,Survival,[19],10
same,Weight change,[20],-4.3
same,Weight change,[21],-5
same,Survival,[22],6
same,Survival,[23],6
same,Survival,[24],5
same,Weight change,[25],-3.2
same,Weight change,[26],-2.5
same,Weight change,[27],-5.4
same,Weight change,[28],-6.2
same,T/C,[29],149%
same,Weight change,[30],-0.9
same,Weight change,[31],-5.8
same,Weight change,[32],-4.6
same,Weight change,[33],-4.5
same,Survival,[34],6
same,Weight change,[35],-4.9
same,Weight change,[36],-1
same,Survival,[37],0
same,Survival,[38],10
same,Survival,[39],10
same,T/C,[40],107%
same,Survival,[41],10
same,Survival,[42],10
